Assay results reported in patent publication US7220748B2, “Use of 4-(2-Flurophenyl)-6-methyl-2-(1-piperazinyl)thieno(2,3-D)-pyrimidine for treating of urinary incontinence” (Arachnova Therapeutics Ltd., priority 2002, dated 2007).
“And” between values parts separate entries of the source, which are not always exact repeats. Equal values may be shown once.

Test system: urethra/internal sphincter
Experiment: Urethral perfusion pressure, vesicular pressure and external sphincter EMG in anaesthetised female rats
Assay type: in vivo, rat
Protocol: Female Sprague-Dawley rats (225–350 g) were anaesthetised using urethane. The bladder was exposed through a midline incision into the abdomen and intravesicular pressure was recorded via a catheter inserted into the bladder. A second catheter was inserted into the bladder to allow infusion of saline using a syringe pump when required. A third catheter was inserted into the bladder and wedged into position in the neck of the bladder with the catheter extending into the urethra. This set-up allowed constant infusion of saline into the urethra whilst urethral pressure was recorded. Changes in urethral pressure are assumed to reflect changes in urethral resistance. In each animal, electromyographic (EMG) recordings were made of urethral striated muscle activity by inserting 2 fine copper electrodes either side of the urethral opening.
Once stable, bladder and urethral pressures were recorded, the bladder was inflated by direct infusion of physiological saline into the bladder at a rate of 0.046 ml/min. This rate approximates the maximum hourly diuresis rate. Infusion into the bladder was terminated prior to evoking micturition and the bladder volume maintained. During and after saline infusion, simultaneous recordings were made of urethral perfusion pressure and of external sphincter EMG activity. Once these parameters had stabilised, autonomic drive to the lower urinary tract was inhibited by administration of hexamethonium (10 mg/kg i.v.) and changes to urethral perfusion pressure and external sphincter EMG recorded. Decamethonium (30 mg/kg i.v.) was then added to remove striated muscle activity. In one group of animals, prior to intravesicular infusion of saline a single bolus dose of MCI-225 was administered (3 mg/kg i.v.). In a second group of animals a bolus dose of vehicle was administered. The effect of MCI-225 and vehicle was determined by analysing the changes in urethral perfusion pressure and external sphincter EMG activity during and after infusion and following administration of the ganglion blocker hexamethonium and then finally decamethonium to block the striated muscle activity of the external sphincter.

`Cc1cc2c(-c3ccccc3F)nc(N3CCNCC3)nc2s1.Cl.O` [MCI-225, 4-(2-Fluorophenyl)-6-methyl-2-(1-piperazinyl)thieno[2,3-D]pyrimidine monohydrate hydrochloride] was tested, and the “Effect on tone of the urethra/internal sphincter” value (3 mg/kg i.v., anaesthetised female rats) was “increased the tone of the urethra/internal sphincter”, the “Decrease in urethral perfusion pressure after decamethonium, from values before hexamethonium” value (3 mg/kg i.v., after hexamethonium 10 mg/kg i.v. then decamethonium 30 mg/kg i.v., vehicle 44±4%) was 64±7% and the “Fall in external sphincter activity (EUS-EMG) after hexamethonium” value (3 mg/kg i.v., after hexamethonium 10 mg/kg i.v., compared with vehicle-treated animals) was “Larger falls”. For the same molecule, the “Drop in urethral perfusion pressure after hexamethonium” value (3 mg/kg i.v., after hexamethonium 10 mg/kg i.v., vehicle 35±7%) was 55±5%, the “Increase in urethral pressure from baseline” value (3 mg/kg i.v., baseline vs after intravesicular infusion, p=0.04 Students t test, vehicle 29%) was 77% and the “Vesicular pressure (VP) after intravesicular infusion” value (anaesthetized female rats, after intravesicular saline infusion, 3 mg kg^-1 i.v., n=3) was 8 ± 1 mmHg. The “Urethral perfusion pressure (UP) after intravesicular infusion” value (anaesthetized female rats, after intravesicular saline infusion, 3 mg kg^-1 i.v., n=3, monohydrate hydrochloride) was 23±2 mmHg and the “Baseline urethral perfusion pressure (UP)” value (anaesthetized female rats, baseline before intravesicular infusion, 3 mg kg^-1 i.v., n=3, monohydrate hydrochloride) was 13±1 mmHg and 13 ± 2 mmHg.
